These results are taken from patent publication US9365613B2, “Acylated 4-amidino- and -4-guanidinobenzylamines for inhibition of plasma kallikrein” (The Medicines Company (Leipzig) GmbH, priority 2003, dated 2016).

Each structure is given as a SMILES string.

Chain of plasma kallikrein (PK) (P03952 391-638 limits assumed, species assumed): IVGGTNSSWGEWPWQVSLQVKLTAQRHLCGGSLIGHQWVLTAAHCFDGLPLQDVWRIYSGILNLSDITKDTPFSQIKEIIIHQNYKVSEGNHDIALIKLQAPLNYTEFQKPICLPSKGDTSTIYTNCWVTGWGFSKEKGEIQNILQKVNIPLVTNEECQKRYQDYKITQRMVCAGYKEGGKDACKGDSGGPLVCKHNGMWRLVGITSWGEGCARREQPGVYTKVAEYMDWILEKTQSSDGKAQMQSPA
Chain of plasma kallikrein (PK) (P03952 20-390 partner limits assumed, species assumed): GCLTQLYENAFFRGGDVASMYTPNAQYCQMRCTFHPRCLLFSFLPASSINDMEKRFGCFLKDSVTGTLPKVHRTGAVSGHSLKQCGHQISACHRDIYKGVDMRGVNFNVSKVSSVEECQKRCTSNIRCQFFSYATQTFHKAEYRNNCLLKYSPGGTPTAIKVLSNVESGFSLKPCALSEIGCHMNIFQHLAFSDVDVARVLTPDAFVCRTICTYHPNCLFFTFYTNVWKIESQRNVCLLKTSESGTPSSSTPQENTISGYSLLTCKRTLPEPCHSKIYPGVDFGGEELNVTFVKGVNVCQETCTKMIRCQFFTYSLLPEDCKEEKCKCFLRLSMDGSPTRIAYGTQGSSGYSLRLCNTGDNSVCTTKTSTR

The target in one experiment is plasma kallikrein (PK) (Homo sapiens, UniProt P03952). Kind of experiment: Determining the inhibitory constants: inhibition of PK (substrate Bzl-Pro-Phe-Arg-pNA). The class given is biochemical. Conditions: Tris buffer pH 8.0, 25° C.; mean of at least three determinations. On the procedure:
(§1) The inhibitory effect for the individual enzymes was determined in analogy with a method which has already been described (Stürzebecher et al., J. Med. Chem. 40, 3091-3099, 1997).
(§2) After 3 min, the reaction was terminated by adding 25 μl of acetic acid (50%) and the absorption at […] was determined using a Microplate Reader (Labsystems iEMS Reader MF). The Ki values were determined, in accordance with Dixon (Biochem. J. 55, 170-171, 1953), by means of linear regression and using a computer program. The Ki values are the mean of at least three determinations.
In the case of `CC(C)(C)OC[C@@H](NS(=O)(=O)Cc1ccccc1)C(=O)N[C@@H](CNC(=O)OCc1ccccc1)C(=O)NCc1ccc(C(=N)N)cc1` [Inhibitor 34], the affinity corresponds to a Ki of 0.025 µM.

On to `CC(C)(C)OC[C@@H](NS(=O)(=O)Cc1ccccc1)C(=O)N[C@@H](CCCCN)C(=O)NCc1ccc(C(=N)N)cc1` [Inhibitor 35], for which the Ki turned out to be 0.0036 µM.

For `CC(C)(C)OC[C@@H](NS(=O)(=O)Cc1ccccc1)C(=O)N[C@@H](CCCCNC(=O)OCc1ccccc1)C(=O)NCc1ccc(C(=N)N)cc1` [Inhibitor 36], the inhibitory constant (Ki) came out at 0.0094 µM.

In turn, `CC(C)(C)OC[C@@H](NS(=O)(=O)Cc1ccccc1)C(=O)N[C@@H](CCCNC(=N)N)C(=O)NCc1ccc(C(=N)N)cc1` [Inhibitor 37] displayed a Ki of 0.04 µM.

Regarding `C[C@@H](OCc1ccccc1)[C@H](NC(=O)[C@@H](COC(C)(C)C)NS(=O)(=O)Cc1ccccc1)C(=O)NCc1ccc(C(=N)N)cc1` [Inhibitor 39], the affinity, expressed as Ki, was 0.044 µM.

`CC(C)(C)OC[C@@H](NS(=O)(=O)Cc1ccccc1)C(=O)N[C@@H](CO)C(=O)NCc1ccc(C(=N)N)cc1` [Inhibitor 40] showed a Ki of 0.052 µM.

`CC(C)(C)OC[C@@H](NS(=O)(=O)Cc1ccccc1)C(=O)N[C@@H](COCc1ccccc1)C(=O)NCc1ccc(C(=N)N)cc1` [Inhibitor 41] gave an inhibition constant (Ki) of 0.012 µM.

For the compound `CC(C)(C)OC[C@@H](NS(=O)(=O)Cc1ccccc1)C(=O)N[C@@H](CO)CC(=O)NCc1ccc(C(=N)N)cc1` [Inhibitor 42], the inhibition constant Ki was determined as 0.21 µM.

The target in the next experiment is T1, human factor XIIa (Homo sapiens, UniProt P00748).
T1 construct: purchased Haemochrom Diagnostica GmbH, Essen, Germany
T1 sequence (P00748 373-615 limits assumed, other chains not shown): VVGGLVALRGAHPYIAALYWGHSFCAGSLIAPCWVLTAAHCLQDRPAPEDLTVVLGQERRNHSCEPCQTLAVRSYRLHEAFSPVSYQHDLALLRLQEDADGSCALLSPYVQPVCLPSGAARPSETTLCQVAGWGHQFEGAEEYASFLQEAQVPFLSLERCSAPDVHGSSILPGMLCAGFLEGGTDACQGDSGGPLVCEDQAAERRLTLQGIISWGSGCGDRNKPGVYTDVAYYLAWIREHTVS
The experiment can be described thus: Inhibitory constants for factor XIIa (substrate H-D-HHT-Gly-Arg-pNA, Chromozym XII). The experiment is classed as biochemical. To be noted: read-out: Ki F XIIa. On the procedure: as §1, §2
(§3) The inhibition of factor XIa and factor XIIa was determined in an analogous manner. When determining the inhibitory constants for human factor XIa (Haemochrom Diagnostica GmbH, Essen, Germany), H-D-Lys(Z)-Pro-Arg-pNA (Chromozym PCa, Roche Diagnostics GmbH, Mannheim, Germany) was used as the substrate.
H-D-HHT-Gly-Arg-pNA (Chromozym XII, Roche Diagnostics GmbH, Mannheim, Germany) was used as the substrate for measuring the inhibitory constants of human factor XIIa (Haemochrom Diagnostica GmbH, Essen, Germany).
For `CC(C)(C)OC[C@@H](NS(=O)(=O)Cc1ccccc1)C(=O)N[C@@H](CNC(=O)OCc1ccccc1)C(=O)NCc1ccc(C(=N)N)cc1` [Inhibitor 34], the inhibition constant Ki came out at 0.93 µM.

For the compound `CC(C)(C)OC[C@@H](NS(=O)(=O)Cc1ccccc1)C(=O)N[C@@H](CCCCN)C(=O)NCc1ccc(C(=N)N)cc1` [Inhibitor 35], the Ki stood at 4.4 µM.

In the case of `CC(C)(C)OC[C@@H](NS(=O)(=O)Cc1ccccc1)C(=O)N[C@@H](CCCCNC(=O)OCc1ccccc1)C(=O)NCc1ccc(C(=N)N)cc1` [Inhibitor 36], the Ki is 5.4 µM.

On to `CC(C)(C)OC[C@@H](NS(=O)(=O)Cc1ccccc1)C(=O)N[C@@H](CCCNC(=N)N)C(=O)NCc1ccc(C(=N)N)cc1` [Inhibitor 37], for which the inhibitory constant (Ki) was found to be 2.6 µM.

Take `C[C@@H](OCc1ccccc1)[C@H](NC(=O)[C@@H](COC(C)(C)C)NS(=O)(=O)Cc1ccccc1)C(=O)NCc1ccc(C(=N)N)cc1` [Inhibitor 39]: the Ki worked out at 17 µM.

Turning to `CC(C)(C)OC[C@@H](NS(=O)(=O)Cc1ccccc1)C(=O)N[C@@H](CO)C(=O)NCc1ccc(C(=N)N)cc1` [Inhibitor 40], the Ki stood at 6 µM.

As to `CC(C)(C)OC[C@@H](NS(=O)(=O)Cc1ccccc1)C(=O)N[C@@H](COCc1ccccc1)C(=O)NCc1ccc(C(=N)N)cc1` [Inhibitor 41], the inhibitory constant (Ki) was 1.4 µM.

As for `CC(C)(C)OC[C@@H](NS(=O)(=O)Cc1ccccc1)C(=O)N[C@@H](CO)CC(=O)NCc1ccc(C(=N)N)cc1` [Inhibitor 42], the inhibition constant Ki was more than 1000 µM.

Another experiment deals with T2, human factor XIa (Homo sapiens, UniProt P03951).
T2 construct: purchased Haemochrom Diagnostica GmbH, Essen, Germany
T2 sequence (P03951 388-625 limits assumed): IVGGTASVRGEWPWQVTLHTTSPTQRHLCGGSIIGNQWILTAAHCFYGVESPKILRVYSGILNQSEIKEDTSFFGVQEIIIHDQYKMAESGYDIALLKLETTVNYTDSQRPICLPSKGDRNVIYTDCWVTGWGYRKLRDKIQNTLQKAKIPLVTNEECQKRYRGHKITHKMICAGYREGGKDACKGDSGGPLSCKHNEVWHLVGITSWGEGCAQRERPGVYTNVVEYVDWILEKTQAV
T2 sequence (P03951 19-387 partner limits assumed): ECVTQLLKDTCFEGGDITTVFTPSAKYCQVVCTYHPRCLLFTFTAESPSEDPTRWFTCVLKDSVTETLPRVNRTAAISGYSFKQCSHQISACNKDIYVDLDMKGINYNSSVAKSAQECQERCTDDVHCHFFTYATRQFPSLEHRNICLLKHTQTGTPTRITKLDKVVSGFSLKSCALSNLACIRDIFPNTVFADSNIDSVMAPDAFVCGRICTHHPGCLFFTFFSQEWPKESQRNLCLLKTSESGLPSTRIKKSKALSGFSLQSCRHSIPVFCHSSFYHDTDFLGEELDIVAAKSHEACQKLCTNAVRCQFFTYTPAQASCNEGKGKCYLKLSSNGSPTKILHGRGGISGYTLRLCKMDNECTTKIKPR
Kind of experiment: Inhibitory constants for factor XIa (substrate H-D-Lys(Z)-Pro-Arg-pNA, Chromozym PCa). The class given is biochemical. To be noted: read-out: Ki F XIa. On the procedure: as §1, §2, §3
For `CC(C)(C)OC[C@@H](NS(=O)(=O)Cc1ccccc1)C(=O)N[C@@H](CNC(=O)OCc1ccccc1)C(=O)NCc1ccc(C(=N)N)cc1` [Inhibitor 34], the Ki amounted to 0.31 µM.

For the compound `CC(C)(C)OC[C@@H](NS(=O)(=O)Cc1ccccc1)C(=O)N[C@@H](CCCCN)C(=O)NCc1ccc(C(=N)N)cc1` [Inhibitor 35], the Ki is 0.51 µM.

On to `CC(C)(C)OC[C@@H](NS(=O)(=O)Cc1ccccc1)C(=O)N[C@@H](CCCCNC(=O)OCc1ccccc1)C(=O)NCc1ccc(C(=N)N)cc1` [Inhibitor 36], for which the Ki came to 0.48 µM.

On to `CC(C)(C)OC[C@@H](NS(=O)(=O)Cc1ccccc1)C(=O)N[C@@H](CCCNC(=N)N)C(=O)NCc1ccc(C(=N)N)cc1` [Inhibitor 37], for which the Ki worked out at 0.34 µM.

As for `C[C@@H](OCc1ccccc1)[C@H](NC(=O)[C@@H](COC(C)(C)C)NS(=O)(=O)Cc1ccccc1)C(=O)NCc1ccc(C(=N)N)cc1` [Inhibitor 39], the inhibition constant (Ki) is 0.4 µM.

`CC(C)(C)OC[C@@H](NS(=O)(=O)Cc1ccccc1)C(=O)N[C@@H](CO)C(=O)NCc1ccc(C(=N)N)cc1` [Inhibitor 40]: the Ki came out at 0.2 µM.

Turning to `CC(C)(C)OC[C@@H](NS(=O)(=O)Cc1ccccc1)C(=O)N[C@@H](COCc1ccccc1)C(=O)NCc1ccc(C(=N)N)cc1` [Inhibitor 41], the inhibitory constant (Ki) came to 0.2 µM.

For the compound `CC(C)(C)OC[C@@H](NS(=O)(=O)Cc1ccccc1)C(=O)N[C@@H](CO)CC(=O)NCc1ccc(C(=N)N)cc1` [Inhibitor 42], the Ki is 0.74 µM.

Another experiment deals with thrombin (UniProt P00735). The experiment can be described thus: Inhibitory constants for thrombin. The experiment is classed as biochemical. Conditions: read-out: Ki Thrombin.
With `CC(C)(C)OC[C@@H](NS(=O)(=O)Cc1ccccc1)C(=O)N[C@@H](CNC(=O)OCc1ccccc1)C(=O)NCc1ccc(C(=N)N)cc1` [Inhibitor 34], the Ki stood at 0.37 µM.

With `CC(C)(C)OC[C@@H](NS(=O)(=O)Cc1ccccc1)C(=O)N[C@@H](CCCCN)C(=O)NCc1ccc(C(=N)N)cc1` [Inhibitor 35], the Ki came out at 0.055 µM.

On to `CC(C)(C)OC[C@@H](NS(=O)(=O)Cc1ccccc1)C(=O)N[C@@H](CCCCNC(=O)OCc1ccccc1)C(=O)NCc1ccc(C(=N)N)cc1` [Inhibitor 36], for which the inhibitory constant (Ki) was found to be 0.024 µM.

As to `CC(C)(C)OC[C@@H](NS(=O)(=O)Cc1ccccc1)C(=O)N[C@@H](CCCNC(=N)N)C(=O)NCc1ccc(C(=N)N)cc1` [Inhibitor 37], the inhibitory constant (Ki) is 0.065 µM.

Turning to `C[C@@H](OCc1ccccc1)[C@H](NC(=O)[C@@H](COC(C)(C)C)NS(=O)(=O)Cc1ccccc1)C(=O)NCc1ccc(C(=N)N)cc1` [Inhibitor 39], the Ki amounted to 0.019 µM.

For `CC(C)(C)OC[C@@H](NS(=O)(=O)Cc1ccccc1)C(=O)N[C@@H](CO)C(=O)NCc1ccc(C(=N)N)cc1` [Inhibitor 40], the Ki turned out to be 0.047 µM.

Turning to `CC(C)(C)OC[C@@H](NS(=O)(=O)Cc1ccccc1)C(=O)N[C@@H](COCc1ccccc1)C(=O)NCc1ccc(C(=N)N)cc1` [Inhibitor 41], the Ki worked out at 0.012 µM.

Turning to `CC(C)(C)OC[C@@H](NS(=O)(=O)Cc1ccccc1)C(=O)N[C@@H](CO)CC(=O)NCc1ccc(C(=N)N)cc1` [Inhibitor 42], the inhibition constant (Ki) is 13 µM.

Usually Ki stands for the equilibrium dissociation constant of an inhibitor or competing ligand from its target.
